Species on record: Rattus norvegicus
Assay: Open TG-GATES - Regimen: Single
Format: toxicity, organism-based, Sprague-Dawley
Set-up: regimen Single, gender Male, age 6 weeks
Details: in vivo, po, 0 mg/kg, route gavage, dose level Control; for APTT / Bas / Eos / Fbg / Hb / Ht / Lym / MCH / MCHC / MCV / Mono / Neu / PT / Plat / RBC / Ret / WBC: tissue Blood; for KIDNEY_L / KIDNEY_R / KIDNEY_TOTAL: tissue Kidney; for LIVER: tissue Liver; for A/G / ALP / ALT / AST / BUN / CRE / Ca / Cl / DBIL / GLC / IP / K / LDH / Na / PL / RALB / TBIL / TC / TG / TP / gamma-GTP: tissue Plasma

`Cc1cccc(C)c1OCC(C)N` (configuration not stated) [MEXILETINE] showed a TERMINAL_BW (3 h) of 222.3 g, an APTT (3 h) of 22.2 s and a Bas (3 h) of 0%. For the same compound, the Eos (3 h) was 0.8%, the Fbg (3 h) was 310.6 mg/dL and the Hb (3 h) was 12.8 g/dL. It also gave a Ht (3 h) of 39.4%, a Lym (3 h) of 80.6% and an MCH (3 h) of 21 pg. The MCHC (3 h) was 32.4%, the MCV (3 h) was 64.8 fL and the Mono (3 h) was 1.8%. The Neu (3 h) was 16.2%, the PT (3 h) was 16.1 s and the Plat (3 h) was 107.7 x10_4/uL. It also gave an RBC (3 h) of 608.6 x10_4/ul, a Ret (3 h) of 8.8% and a WBC (3 h) of 96.5 x10_2/uL. The KIDNEY_L (3 h) was 0.9 g, the KIDNEY_R (3 h) was 0.9 g and the KIDNEY_TOTAL (3 h) was 1.9 g. The LIVER (3 h) was 10.2 g, the A/G (3 h) was 1.2 and the ALP (3 h) was 1498 IU/L. It also gave an ALT (3 h) of 45.2 IU/L, an AST (3 h) of 77.4 IU/L and a BUN (3 h) of 13.6 mg/dL. For the same compound, the CRE (3 h) was 0.2 mg/dL, the Ca (3 h) was 10.6 mg/dL and the Cl (3 h) was 107 meq/L. It also gave a DBIL (3 h) of 0 mg/dL, a GLC (3 h) of 192 mg/dL and an IP (3 h) of 8.5 mg/dL. The K (3 h) was 4 meq/L, the LDH (3 h) was 181.2 IU/L and the Na (3 h) was 142 meq/L. It also gave a PL (3 h) of 132.4 mg/dL, an RALB (3 h) of 3 g/dL and a TBIL (3 h) of 0.016 mg/dL. For the same compound, the TC (3 h) was 77 mg/dL, the TG (3 h) was 62.8 mg/dL and the TP (3 h) was 5.5 g/dL. For the same compound, the gamma-GTP (3 h) was 1.6 IU/L, the TERMINAL_BW (6 h) was 218.2 g and the APTT (6 h) was 22.4 s. The Bas (6 h) was 0%, the Eos (6 h) was 0.8% and the Fbg (6 h) was 305.2 mg/dL. For the same compound, the Hb (6 h) was 12.9 g/dL, the Ht (6 h) was 39.5% and the Lym (6 h) was 78.4%. It also gave an MCH (6 h) of 20.6 pg, an MCHC (6 h) of 32.7% and an MCV (6 h) of 63.1 fL. For the same compound, the Mono (6 h) was 2.8%, the Neu (6 h) was 17.2% and the PT (6 h) was 16 s. For the same compound, the Plat (6 h) was 113.7 x10_4/uL, the RBC (6 h) was 627.6 x10_4/ul and the Ret (6 h) was 7.8%. The WBC (6 h) was 112.2 x10_2/uL, the KIDNEY_L (6 h) was 1 g and the KIDNEY_R (6 h) was 1 g. For the same compound, the KIDNEY_TOTAL (6 h) was 2 g, the LIVER (6 h) was 9.4 g and the A/G (6 h) was 1.3. For the same compound, the ALP (6 h) was 1119.6 IU/L, the ALT (6 h) was 37.4 IU/L and the AST (6 h) was 70.2 IU/L. It also gave a BUN (6 h) of 10.4 mg/dL, a CRE (6 h) of 0.2 mg/dL and a Ca (6 h) of 10.5 mg/dL. It also gave a Cl (6 h) of 105.2 meq/L, a DBIL (6 h) of 0 mg/dL and a GLC (6 h) of 192.4 mg/dL. It also gave an IP (6 h) of 9.2 mg/dL, a K (6 h) of 4.2 meq/L and an LDH (6 h) of 187.6 IU/L. For the same compound, the Na (6 h) was 140.6 meq/L, the PL (6 h) was 125 mg/dL and the RALB (6 h) was 3 g/dL. The TBIL (6 h) was 0.028 mg/dL, the TC (6 h) was 72 mg/dL and the TG (6 h) was 66.2 mg/dL. It also gave a TP (6 h) of 5.4 g/dL, a gamma-GTP (6 h) of 1.4 IU/L and a TERMINAL_BW (9 h) of 213.9 g. The APTT (9 h) was 22.8 s, the Bas (9 h) was 0% and the Eos (9 h) was 0.8%. It also gave a Fbg (9 h) of 311 mg/dL, a Hb (9 h) of 12.9 g/dL and a Ht (9 h) of 40.1%. The Lym (9 h) was 77.2%, the MCH (9 h) was 20.7 pg and the MCHC (9 h) was 32.2%. It also gave an MCV (9 h) of 64.1 fL, a Mono (9 h) of 2.4% and a Neu (9 h) of 19.6%. The PT (9 h) was 16.2 s, the Plat (9 h) was 105.6 x10_4/uL and the RBC (9 h) was 625.4 x10_4/ul. It also gave a Ret (9 h) of 8%, a WBC (9 h) of 86.8 x10_2/uL and a KIDNEY_L (9 h) of 0.9 g. For the same compound, the KIDNEY_R (9 h) was 0.9 g, the KIDNEY_TOTAL (9 h) was 1.8 g and the LIVER (9 h) was 8.7 g. The A/G (9 h) was 1.3, the ALP (9 h) was 1333.8 IU/L and the ALT (9 h) was 35.6 IU/L. It also gave an AST (9 h) of 66.2 IU/L, a BUN (9 h) of 12.2 mg/dL and a CRE (9 h) of 0.2 mg/dL. The Ca (9 h) was 10.5 mg/dL, the Cl (9 h) was 105.2 meq/L and the DBIL (9 h) was 0 mg/dL. For the same compound, the GLC (9 h) was 188.8 mg/dL, the IP (9 h) was 9.4 mg/dL and the K (9 h) was 4.2 meq/L. The LDH (9 h) was 133.6 IU/L, the Na (9 h) was 141.6 meq/L and the PL (9 h) was 122 mg/dL. For the same compound, the RALB (9 h) was 3 g/dL, the TBIL (9 h) was 0.02 mg/dL and the TC (9 h) was 66.2 mg/dL. For the same compound, the TG (9 h) was 53.2 mg/dL, the TP (9 h) was 5.5 g/dL and the gamma-GTP (9 h) was 1 IU/L. It also gave a TERMINAL_BW (24 h) of 223.6 g, an APTT (24 h) of 20.9 s and a Bas (24 h) of 0%. It also gave an Eos (24 h) of 1%, a Fbg (24 h) of 304 mg/dL and a Hb (24 h) of 13 g/dL. It also gave a Ht (24 h) of 40.2%, a Lym (24 h) of 78.4% and an MCH (24 h) of 20.6 pg. The MCHC (24 h) was 32.3%, the MCV (24 h) was 63.6 fL and the Mono (24 h) was 2%. It also gave a Neu (24 h) of 17.6%, a PT (24 h) of 16.4 s and a Plat (24 h) of 128.5 x10_4/uL. The RBC (24 h) was 632.6 x10_4/ul, the Ret (24 h) was 6.7% and the WBC (24 h) was 88.8 x10_2/uL. For the same compound, the KIDNEY_L (24 h) was 1 g, the KIDNEY_R (24 h) was 1 g and the KIDNEY_TOTAL (24 h) was 1.9 g. The LIVER (24 h) was 9.9 g, the A/G (24 h) was 1.3 and the ALP (24 h) was 1840.4 IU/L. The ALT (24 h) was 49.8 IU/L, the AST (24 h) was 73.8 IU/L and the BUN (24 h) was 15.6 mg/dL. It also gave a CRE (24 h) of 0.2 mg/dL, a Ca (24 h) of 10.7 mg/dL and a Cl (24 h) of 107 meq/L. It also gave a DBIL (24 h) of 0 mg/dL, a GLC (24 h) of 196.4 mg/dL and an IP (24 h) of 7.6 mg/dL. For the same compound, the K (24 h) was 4 meq/L, the LDH (24 h) was 166 IU/L and the Na (24 h) was 143.2 meq/L. It also gave a PL (24 h) of 130.6 mg/dL, an RALB (24 h) of 3.1 g/dL and a TBIL (24 h) of 0.008 mg/dL. The TC (24 h) was 70 mg/dL, the TG (24 h) was 74.6 mg/dL and the TP (24 h) was 5.6 g/dL. For the same compound, the gamma-GTP (24 h) was 1.8 IU/L.
